According to US9974806B2 (priority 2012, dated 2018):

Tested on: Shiga toxins

Substance: colloidal bismuth hydroxide gel [CBHG]
- cytotoxic activity on Vero cells: significant decrease
